Laboratory results published in US10160755B2 (Plexxikon Inc., priority 2015, dated 2018).

How the values were obtained:
FLT3-ITD = target: T1, FLT3-ITD (Homo sapiens, UniProt P36888); test: FLT3-ITD biochemical kinase assay (AlphaScreen)
T1 construct: FLT3-ITD; Invitrogen #PV6190
T1 sequence (P36888 1-993): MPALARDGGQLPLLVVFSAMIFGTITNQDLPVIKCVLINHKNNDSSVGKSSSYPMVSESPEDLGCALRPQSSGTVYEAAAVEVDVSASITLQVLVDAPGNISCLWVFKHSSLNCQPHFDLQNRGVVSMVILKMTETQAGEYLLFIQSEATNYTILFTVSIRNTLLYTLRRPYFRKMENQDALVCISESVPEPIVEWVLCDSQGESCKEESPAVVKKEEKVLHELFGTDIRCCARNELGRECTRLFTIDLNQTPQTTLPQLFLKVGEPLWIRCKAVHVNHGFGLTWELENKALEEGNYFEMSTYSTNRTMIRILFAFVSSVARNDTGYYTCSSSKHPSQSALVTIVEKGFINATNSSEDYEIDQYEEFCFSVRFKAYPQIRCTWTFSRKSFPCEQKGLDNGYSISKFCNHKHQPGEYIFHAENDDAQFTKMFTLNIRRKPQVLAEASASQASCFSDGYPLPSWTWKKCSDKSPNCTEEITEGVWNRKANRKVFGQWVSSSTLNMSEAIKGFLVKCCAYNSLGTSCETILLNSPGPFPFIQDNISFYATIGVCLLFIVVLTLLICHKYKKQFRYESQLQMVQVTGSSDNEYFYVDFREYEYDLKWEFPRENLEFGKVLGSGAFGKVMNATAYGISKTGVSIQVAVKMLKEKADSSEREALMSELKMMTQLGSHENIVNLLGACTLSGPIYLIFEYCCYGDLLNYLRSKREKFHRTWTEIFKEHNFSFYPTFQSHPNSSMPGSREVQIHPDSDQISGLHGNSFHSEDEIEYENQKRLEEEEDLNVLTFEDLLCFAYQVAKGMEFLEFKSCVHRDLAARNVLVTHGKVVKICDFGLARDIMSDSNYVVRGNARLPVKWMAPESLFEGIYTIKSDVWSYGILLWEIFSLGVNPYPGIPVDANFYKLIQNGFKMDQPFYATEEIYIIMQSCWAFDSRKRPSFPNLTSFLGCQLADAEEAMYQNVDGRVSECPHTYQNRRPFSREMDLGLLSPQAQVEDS
Excerpt: (§1) In order to determine the effect of compounds on FLT3 catalytic activity, kinase assays using recombinant enzymes and AlphaScreen® technology have been established. When the kinases are catalytically active, they phosphorylate a biotinylated peptide substrate on tyrosine residues. Using AlphaScreen® technology, the ability of the compounds to affect the catalytic activity of the kinases can be measured quantitatively. The peptide substrate is immobilized by the AlphaScreen® Streptavidin Donor beads and, upon phosphorylation by a tyrosine kinase, can bind to AlphaScreen® Anti-Phosphotyrosine (PY20) Acceptor beads. Upon excitation of these beads with laser light at 680 nm, singlet oxygen is produced. This singlet oxygen is rapidly quenched, unless the AlphaScreen® Anti-Phosphotyrosine (PY20) Acceptor beads are in close proximity, in which case a proximity signal can be measured at 580 nm. In the presence of catalytic activity, there is a very strong proximity signal. Selective kinase inhibitors affect a decrease in this proximity signal through a decrease in tyrosine phosphorylation of the peptide substrate.
(§2) Substrate • Poly (Glu4-Tyr) Peptide, biotin conjugate [Biotin-GG(EEEEY)10EE (SEQ ID NO: 4)] • UBI/Millipore #12-440 • Final concentration=30 nM
(§3) Adenosine Triphosphate (ATP) • Sigma #A-3377 • Final concentration for IC50 determination=10 μM (FLT3-D835Y) or 100 μM (FLT3 or FLT3-ITD) • Detection Reagent • AlphaScreen® Phosphotyrosine (PY20) Assay Kit • Perkin-Elmer #6760601M • Final concentration=10 μg/mL
(§4) Centrifuge 1 minute, shake to mix, and incubate as follows:
(§5) • Mix Streptavidin Donor beads at 6× final concentration in Stop/Detection buffer. • Add 5 μL Streptavidin Donor beads to the reaction plate. Centrifuge 1 minute, shake to mix, and incubate at room temperature for 20 minutes. • Mix Anti-Phosphotyrosine (PY20) Acceptor beads at 6× final concentration in Stop/Detection buffer. • Add 5 μL Anti-Phosphotyrosine (PY20) beads to the reaction plate. • Centrifuge 1 minute, shake to mix, and incubate at room temperature for 60 minutes. • Read plate on Wallac EnVision™ 2103 Multilabel Reader. In Vivo Model System Testing

FLT3-D835Y = target: T2, FLT3-D835Y (Homo sapiens, UniProt P36888, D835Y); test: FLT3-D835Y biochemical kinase assay (AlphaScreen)
T2 construct: purchased Invitrogen PV3967
T2 sequence (P36888 27-993 D835Y): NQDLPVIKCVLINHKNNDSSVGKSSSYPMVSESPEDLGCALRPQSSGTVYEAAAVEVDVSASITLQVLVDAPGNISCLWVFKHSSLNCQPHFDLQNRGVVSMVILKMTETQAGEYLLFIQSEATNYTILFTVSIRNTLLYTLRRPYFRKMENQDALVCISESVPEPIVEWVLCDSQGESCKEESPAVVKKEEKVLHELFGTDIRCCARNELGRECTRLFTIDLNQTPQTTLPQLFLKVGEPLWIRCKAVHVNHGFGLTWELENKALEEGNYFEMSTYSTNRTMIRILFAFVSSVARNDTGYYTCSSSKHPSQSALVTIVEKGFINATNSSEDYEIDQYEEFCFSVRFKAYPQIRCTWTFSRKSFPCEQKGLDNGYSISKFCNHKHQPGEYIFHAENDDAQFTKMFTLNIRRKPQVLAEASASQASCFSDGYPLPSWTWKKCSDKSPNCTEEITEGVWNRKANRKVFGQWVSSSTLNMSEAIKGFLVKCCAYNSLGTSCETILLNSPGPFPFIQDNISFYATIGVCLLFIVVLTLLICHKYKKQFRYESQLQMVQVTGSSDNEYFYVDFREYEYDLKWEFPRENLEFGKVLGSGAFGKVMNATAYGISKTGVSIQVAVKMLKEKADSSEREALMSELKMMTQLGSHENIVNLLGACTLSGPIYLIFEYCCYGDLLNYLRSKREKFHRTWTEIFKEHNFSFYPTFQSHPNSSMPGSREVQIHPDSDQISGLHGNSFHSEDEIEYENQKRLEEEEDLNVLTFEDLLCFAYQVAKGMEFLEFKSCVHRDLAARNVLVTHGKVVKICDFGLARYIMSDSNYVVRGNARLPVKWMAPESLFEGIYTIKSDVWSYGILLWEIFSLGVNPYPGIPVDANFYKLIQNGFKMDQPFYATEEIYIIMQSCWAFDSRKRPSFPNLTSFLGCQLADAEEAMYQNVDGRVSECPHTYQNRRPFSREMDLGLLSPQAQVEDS
Excerpt: as §1, §2, §3, §4, §5

| IC50 (FLT3-ITD) [µM] | IC50 (FLT3-D835Y) [µM] | Structure (SMILES) |
| --- | --- | --- |
| 0.0001 to 1 | – | CC(C)(C)n1cnc2ccc(-c3c[nH]c4ncc(-c5cnc(C#N)nc5)cc34)cc21 [P-396, 5-[3-(3-tert-butylbenzimidazol-5-yl)-1H-pyrrolo[2,3-b]pyridin-5-yl]pyrimidine-2-carbonitrile] |
| 0.0001 to 1 | – | Cc1cc(-c2cnc3[nH]cc(-c4ccc5ncn(C(C)(C)C)c5c4)c3c2)cnc1C#N [P-393, 5-[3-(3-tert-butylbenzimidazol-5-yl)-1H-pyrrolo[2,3-b]pyridin-5-yl]-3-methyl-pyridine-2-carbonitrile] |
| – | 0.0001 to 1 | COc1cc(-c2cnc3[nH]cc(-c4ccc5ncsc5c4)c3n2)cc(OC)n1 [P-172, 6-[2-(2,6-dimethoxy-4-pyridyl)-5H-pyrrolo[2,3-b]pyrazin-7-yl]-1,3-benzothiazole] |
| 0.0001 to 1 | – | CC(C)(C)n1cnc2ccc(-c3c[nH]c4ncc(-c5cccc(OCC#N)c5)cc34)cc21 [P-367, 2-[3-[3-(3-tert-butylbenzimidazol-5-yl)-1H-pyrrolo[2,3-b]pyridin-5-yl]phenoxy]acetonitrile] |
| – | 0.0001 to 1 | COc1cc(-c2cnc3[nH]cc(-c4ccc5ncn(-c6ccc(F)cc6)c5c4)c3c2)cc(OC)n1 [P-198, 5-(2,6-dimethoxy-4-pyridyl)-3-[3-(4-fluorophenyl)benzimidazol-5-yl]-1H-pyrrolo[2,3-b]pyridine] |
| – | 0.0001 to 1 | COc1cc(-c2cnc3[nH]cc(-c4ccc5ncsc5c4)c3n2)ccc1C#N [P-183, 4-[7-(1,3-benzothiazol-6-yl)-5H-pyrrolo[2,3-b]pyrazin-2-yl]-2-methoxy-benzonitrile] |
| – | 1 to 10 | COc1cnc2[nH]cc(-c3ccc4[nH]ncc4c3)c2c1 [P-003, 3-(1H-indazol-5-yl)-5-methoxy-1H-pyrrolo[2,3-b]pyridine] |
| – | 0.0001 to 1 | Cn1cnc2ccc(-c3c[nH]c4ncc(-c5ccc(Cl)c(C#N)c5)cc34)cc21 [P-140, 2-chloro-5-[3-(3-methylbenzimidazol-5-yl)-1H-pyrrolo[2,3-b]pyridin-5-yl]benzonitrile] |

Second part, the compound before the results:

| Structure (SMILES) | IC50 (FLT3-ITD) [µM] | IC50 (FLT3-D835Y) [µM] |
| --- | --- | --- |
| CC(C)(C)n1cnc2ccc(-c3c[nH]c4ncc(-c5cnc(C(=O)O)nc5)cc34)cc21 [P-402, 5-[3-(3-tert-butylbenzimidazol-5-yl)-1H-pyrrolo[2,3-b]pyridin-5-yl]pyrimidine-2-carboxylic acid] | 0.0001 to 1 | – |
| N#Cc1cc(-c2cnc3[nH]cc(-c4ccc5ncn(-c6ccc(F)cc6)c5c4)c3c2)ccc1F [P-209, 2-fluoro-5-[3-[3-(4-fluorophenyl)benzimidazol-5-yl]-1H-pyrrolo[2,3-b]pyridin-5-yl]benzonitrile] | – | 0.0001 to 1 |
| CC(C)(C)n1cnc2ccc(-c3c[nH]c4ncc(-c5cccc(OCC(=O)O)c5)cc34)cc21 [P-374, 2-[3-[3-(3-tert-butylbenzimidazol-5-yl)-1H-pyrrolo[2,3-b]pyridin-5-yl]phenoxy]acetic acid] | 0.0001 to 1 | – |
| O=S(=O)(c1cccc(-c2cnc3[nH]cc(-c4ccc5ncsc5c4)c3n2)c1)N1CCCC1 [P-171, 6-[2-(3-pyrrolidin-1-ylsulfonylphenyl)-5H-pyrrolo[2,3-b]pyrazin-7-yl]-1,3-benzothiazole] | – | 0.0001 to 1 |
| Cc1cc(-c2cnc3[nH]cc(-c4ccc5ncn(C(C)(C)C)c5c4)c3n2)ccn1 [P-403, 7-(3-tert-butylbenzimidazol-5-yl)-2-(2-methyl-4-pyridyl)-5H-pyrrolo[2,3-b]pyrazine] | 0.0001 to 1 | – |
| C=CCS(=O)(=O)Nc1cccc(-c2cnc3[nH]cc(-c4ccc5ncn(C(C)(C)C)c5c4)c3c2)c1 [P-375, N-[3-[3-(3-tert-butylbenzimidazol-5-yl)-1H-pyrrolo[2,3-b]pyridin-5-yl]phenyl]prop-2-ene-1-sulfonamide] | 0.0001 to 1 | – |
| COc1ccc(-c2cnc3[nH]cc(-c4ccc5ncn(C(C)(C)C)c5c4)c3c2)cc1NS(C)(=O)=O [P-370, N-[5-[3-(3-tert-butylbenzimidazol-5-yl)-1H-pyrrolo[2,3-b]pyridin-5-yl]-2-methoxy-phenyl]methanesulfonamide] | 0.0001 to 1 | – |
| Cn1cc(-c2cnc3[nH]cc(-c4ccc5ncsc5c4)c3n2)ccc1=O [P-182, 5-[7-(1,3-benzothiazol-6-yl)-5H-pyrrolo[2,3-b]pyrazin-2-yl]-1-methyl-pyridin-2-one] | – | 0.0001 to 1 |
| CC(C)(C)n1cnc2ccc(-c3c[nH]c4ncc(NS(=O)(=O)c5cccc(C#N)c5)cc34)cc21 [P-233, N-[3-(3-tert-butylbenzimidazol-5-yl)-1H-pyrrolo[2,3-b]pyridin-5-yl]-3-cyano-benzenesulfonamide] | – | 0.0001 to 1 |
| COc1cc(-c2cnc3[nH]cc(-c4ccc5ncn(-c6ccc(F)cc6)c5c4)c3n2)cc(OC)n1 [P-205, 2-(2,6-dimethoxy-4-pyridyl)-7-[3-(4-fluorophenyl)benzimidazol-5-yl]-5H-pyrrolo[2,3-b]pyrazine] | – | 0.0001 to 1 |
| O=S(=O)(c1ccc(-c2cnc3[nH]cc(-c4ccc5ncsc5c4)c3n2)cc1)N1CCCC1 [P-160, 6-[2-(4-pyrrolidin-1-ylsulfonylphenyl)-5H-pyrrolo[2,3-b]pyrazin-7-yl]-1,3-benzothiazole] | – | 0.0001 to 1 |
| CC(C)S(=O)(=O)Nc1cccc(-c2cnc3[nH]cc(-c4ccc5ncsc5c4)c3n2)c1 [P-184, N-[3-[7-(1,3-benzothiazol-6-yl)-5H-pyrrolo[2,3-b]pyrazin-2-yl]phenyl]propane-2-sulfonamide] | – | 0.0001 to 1 |
| COc1cc(-c2cnc3[nH]c(C)c(-c4ccc5ncn(C)c5c4)c3c2)ccn1 [P-112, 5-(2-methoxy-4-pyridyl)-2-methyl-3-(3-methylbenzimidazol-5-yl)-1H-pyrrolo[2,3-b]pyridine] | – | 0.0001 to 1 |
| Cn1cnc2ccc(-c3c[nH]c4ncc(-c5ccc(S(=O)(=O)N6CCCC6)cc5)nc34)cc21 [P-148, 7-(3-methylbenzimidazol-5-yl)-2-(4-pyrrolidin-1-ylsulfonylphenyl)-5H-pyrrolo[2,3-b]pyrazine] | – | 0.0001 to 1 |
